Reference: publication PMC10525135, “Computationally Designed AMPs with Antibacterial and Antibiofilm Activity against MDR Acinetobacter baumannii” (Antibiotics, 2023)
Residues, ends and D or L forms follow the SMILES beside them.

Assays:
AB5075 = test: Membrane permeabilization assay (ethidium bromide uptake); format: cell-based, Acinetobacter baumannii; settings: 50 µg/mL, 10 µM ethidium bromide, 20 min at 37 °C, versus untreated control
Procedure: Membrane permeabilization was assessed using ethidium bromide uptake after peptide exposure, as we have previously described. AB5075 was grown on a Tryptic Soy agar for 18–24 h. Colonies presenting opaque morphology were picked and resuspended in DPBS (Gibco, Waltham, MA, USA) to achieve 0.1 OD600. A total of 180 µL of the bacterial suspension was mixed with a final peptide concentration of 50 µg/mL and a final ethidium bromide concentration of 10 µM in a black 96-well flat plate (Ultracruz Polypropylene Microplate sc-204462, Santacruz, CA, USA). The plate was transferred immediately to BioTek Cytation 5 (Santa Clara, CA, USA) for fluorescence intensity readings every 2 min for 20 min at 37 °C (excitation: 535 nm; emission: 590 nm). The relative fluorescence units (RFUs) were calculated. Tested samples minus no peptide control that has EtBr. LL-37 and polymyxin B were used as the controls in this experiment. The experiment was run in three replicates twice. Student’s t-test was used to determine statistical significance.

[1] = tested on: A. baumannii BAA-1710 and -1794 biofilm; test: Antibiofilm screening at 100 µg/mL (crystal violet); format: cell-based, Acinetobacter baumannii; settings: n = 3
Procedure: As the first step, antibacterial screening (n = 3) was performed on MDR strains of A. baumannii listed in Table 5, with each peptide at a concentration of 100 μg/mL in MHB. […] Growth was measured spectrophotometrically at OD600 nm at 20–24 h, following the CLSI protocol for A. baumannii incubation for MIC [99]. Similarly, biofilm formation was first established for tested A. baumannii strains using our crystal violet-staining protocol described below. Then, antibiofilm screening (n = 3) of each peptide against biofilm formation of A. baumannii was determined at 100 μg/mL. Peptides that were active in this screen were then analyzed in more detail as described below. Positive controls were used, such as LL-37 and polymyxin B [18, 66, 67]. Samples containing only the medium were considered as the sterility control whereas samples containing only bacteria served as the growth control.
The MBIC assay measures the lowest concentration of a compound that inhibits the biofilm formation of an organism. […] After the incubation of bacteria with AMPs, OD600 nm was measured for approximate bacterial growth. […] After that, 200 µL of 33% glacial acetic acid was added to resolubilize the stain, and biofilm mass was measured by a spectrophotometric reading at OD590. […]

Galleria mellonella = test: Waxworm toxicity testing; settings: 10 µg in 10 µL PBS injected per worm, 10 worms per group, 72 h
Procedure: Galleria mellonella were obtained from Vanderhorst Wholesale (Saint Mary’s, OH, USA), and 10 worms with equal weights between 200 to 300 mg were assigned to each group. […] The experiment was performed twice, and the results were analyzed by the Mantel–Cox test.

Q: What does the source list for `CC[C@H](C)CCCCC(=O)N[C@@H](CCN)C(=O)N[C@H](C(=O)N[C@@H](CCN)C(=O)N[C@H]1CCNC(=O)[C@H]([C@@H](C)O)NC(=O)[C@H](CCN)NC(=O)[C@H](CCN)NC(=O)[C@H](CC(C)C)NC(=O)[C@@H](Cc2ccccc2)NC(=O)[C@H](CCN)NC1=O)[C@@H](C)O` [Polymyxin B] (HELM PEPTIDE1{[CC[C@H](C)CCCCC(=O)[*:2]].[Dab].T.[Dab].[Dab].[Dab].[dF].L.[Dab].[Dab].T}$PEPTIDE1,PEPTIDE1,5:R3-11:R2$$$V2.0; N-terminus assumed; bridges inferred)?
A: Membrane permeabilization (AB5075): disrupted bacterial membranes; Biofilm inhibition in screen [1]: complete biofilm inhibition; Survival of worms (Galleria mellonella): 80%
